Data published in PubChem BioAssay AID2060510 (Molecular Pharmacology Branch, DTP, NCI, 2025).

Tested on: 439559-082-T-J2-PDC spheroids viability
Assay: Anticancer human tumor 439559-082-T-J2-PDC patient-derived colon adenocarcinoma cell line growth inhibition [GQUAD]
Conditions: for IC50: curve of first compound; for viability, T/C: stronger effect = lower value
Summary of the method: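 Multi-cell-type spheroids of tumor cells with HUVEC and mesenchymal stem cells, treated with drug combinations. Concentrations descend in half-log steps from near clinical Cmax, or from 10 microM where Cmax is unknown; viability read-out.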

[1] = second compound 0.0316 µM, first compound 0.0316 µM
[2] = second compound 0.0316 µM, first compound 0.1 µM
[3] = second compound 0.0316 µM, first compound 0.316 µM
[4] = second compound 0.0316 µM, first compound 1 µM
[5] = second compound 0.0316 µM, first compound 3.16 µM
[6] = second compound 0.0316 µM, first compound 10 µM
[7] = second compound 0.1 µM, first compound 0.0316 µM
[8] = second compound 0.1 µM, first compound 0.1 µM
[9] = second compound 0.1 µM, first compound 0.316 µM
[10] = second compound 0.1 µM, first compound 1 µM
[11] = second compound 0.1 µM, first compound 3.16 µM
[12] = second compound 0.1 µM, first compound 10 µM
[13] = second compound 0.316 µM, first compound 0.0316 µM
[14] = second compound 0.316 µM, first compound 0.1 µM
[15] = second compound 0.316 µM, first compound 0.316 µM
[16] = second compound 0.316 µM, first compound 1 µM
[17] = second compound 0.316 µM, first compound 3.16 µM
[18] = second compound 0.316 µM, first compound 10 µM
[19] = second compound 1 µM, first compound 0.0316 µM
[20] = second compound 1 µM, first compound 0.1 µM
[21] = second compound 1 µM, first compound 0.316 µM
[22] = second compound 1 µM, first compound 1 µM
[23] = second compound 1 µM, first compound 3.16 µM
[24] = second compound 1 µM, first compound 10 µM
[25] = second compound 3.16 µM, first compound 0.0316 µM
[26] = second compound 3.16 µM, first compound 0.1 µM
[27] = second compound 3.16 µM, first compound 0.316 µM
[28] = second compound 3.16 µM, first compound 1 µM
[29] = second compound 3.16 µM, first compound 3.16 µM
[30] = second compound 3.16 µM, first compound 10 µM
[31] = second compound 10 µM, first compound 0.0316 µM
[32] = second compound 10 µM, first compound 0.1 µM
[33] = second compound 10 µM, first compound 0.316 µM
[34] = second compound 10 µM, first compound 1 µM
[35] = second compound 10 µM, first compound 3.16 µM
[36] = second compound 10 µM, first compound 10 µM
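Note: spheroids exposed to the agents for 7 days before readout.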
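Throughout, for viability, T/C: percent of luminescence signal in DMSO vehicle wells taken as 100% viability.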

For C=CC(=O)N1CCN(c2nc(=O)n(-c3c(C)ccnc3C(C)C)c3nc(-c4c(O)cccc4F)c(F)cc23)C(C)C1 (stereo not drawn) + Cc1cnc(CNC(=O)c2c(=O)c3ccc(N4CCCN(C)CC4)nc3n3c2sc2ccccc23)cn1, the IC50 (second compound 0.0316 µM) was greater than 10 µM, the IC50 (second compound 0.1 µM) was greater than 10 µM and the IC50 (second compound 0.316 µM) was greater than 10 µM. The IC50 (second compound 1 µM) was greater than 10 µM, the IC50 (second compound 3.16 µM) was greater than 10 µM and the IC50 (second compound 10 µM) was greater than 10 µM. The viability, T/C [1] was 116%, the viability, T/C [2] was 95.1% and the viability, T/C [3] was 103%. For the same molecule, the viability, T/C [4] was 110%, the viability, T/C [5] was 95.6% and the viability, T/C [6] was 111%. It also gave a viability, T/C [7] of 99.3%, a viability, T/C [8] of 99.1% and a viability, T/C [9] of 87.3%. For the same molecule, the viability, T/C [10] was 87.9%, the viability, T/C [11] was 93% and the viability, T/C [12] was 93.2%. The viability, T/C [13] was 95.2%, the viability, T/C [14] was 92.3% and the viability, T/C [15] was 84.9%. The viability, T/C [16] was 91.2%, the viability, T/C [17] was 91.1% and the viability, T/C [18] was 93%. It also gave a viability, T/C [19] of 73.7%, a viability, T/C [20] of 83% and a viability, T/C [21] of 76.1%. It also gave a viability, T/C [22] of 75.4%, a viability, T/C [23] of 87.9% and a viability, T/C [24] of 75.9%. It also gave a viability, T/C [25] of 76.9%, a viability, T/C [26] of 73% and a viability, T/C [27] of 71.5%. The viability, T/C [28] was 71.1%, the viability, T/C [29] was 78% and the viability, T/C [30] was 72.9%. For the same molecule, the viability, T/C [31] was 59.2%, the viability, T/C [32] was 74.7% and the viability, T/C [33] was 75.8%. It also gave a viability, T/C [34] of 76.2%, a viability, T/C [35] of 77.1% and a viability, T/C [36] of 72.6%.
Cc1cccc(N(C)C(=O)C2C(O)CCN2c2nc(C)cc(C(F)(F)F)c2C#N)c1 (stereo not drawn) + Cc1cnc(CNC(=O)c2c(=O)c3ccc(N4CCCN(C)CC4)nc3n3c2sc2ccccc23)cn1 was tested, and the IC50 (second compound 0.0316 µM) was greater than 10 µM, the IC50 (second compound 0.1 µM) was greater than 10 µM and the IC50 (second compound 0.316 µM) was greater than 10 µM. The IC50 (second compound 1 µM) was greater than 10 µM, the IC50 (second compound 3.16 µM) was greater than 10 µM and the IC50 (second compound 10 µM) was greater than 10 µM. The viability, T/C [1] was 101%, the viability, T/C [2] was 95.6% and the viability, T/C [3] was 82.5%. For the same molecule, the viability, T/C [4] was 99%, the viability, T/C [5] was 95.2% and the viability, T/C [6] was 101%. The viability, T/C [7] was 117%, the viability, T/C [8] was 93.5% and the viability, T/C [9] was 90.2%. For the same molecule, the viability, T/C [10] was 85.4%, the viability, T/C [11] was 93.3% and the viability, T/C [12] was 92.6%. It also gave a viability, T/C [13] of 90.8%, a viability, T/C [14] of 86.3% and a viability, T/C [15] of 79.3%. It also gave a viability, T/C [16] of 82.2%, a viability, T/C [17] of 92.2% and a viability, T/C [18] of 84.3%. It also gave a viability, T/C [19] of 83.1%, a viability, T/C [20] of 81.2% and a viability, T/C [21] of 74.2%. For the same molecule, the viability, T/C [22] was 76.3%, the viability, T/C [23] was 80.5% and the viability, T/C [24] was 74.8%. For the same molecule, the viability, T/C [25] was 73.4%, the viability, T/C [26] was 72.1% and the viability, T/C [27] was 71.9%. It also gave a viability, T/C [28] of 69.3%, a viability, T/C [29] of 72.7% and a viability, T/C [30] of 66.3%. For the same molecule, the viability, T/C [31] was 72.1%, the viability, T/C [32] was 70.2% and the viability, T/C [33] was 68.5%. The viability, T/C [34] was 67.7%, the viability, T/C [35] was 72.5% and the viability, T/C [36] was 63%.
Work on Cn1ncnc1[C@H]1c2n[nH]c(=O)c3cc(F)cc(c23)N[C@@H]1c1ccc(F)cc1 + Cc1cnc(CNC(=O)c2c(=O)c3ccc(N4CCCN(C)CC4)nc3n3c2sc2ccccc23)cn1 yielded an IC50 (second compound 0.0316 µM) greater than 0.316 µM, an IC50 (second compound 0.1 µM) greater than 0.316 µM and an IC50 (second compound 0.316 µM) greater than 0.316 µM. The IC50 (second compound 1 µM) was greater than 0.316 µM, the IC50 (second compound 3.16 µM) was greater than 0.316 µM and the IC50 (second compound 10 µM) was greater than 0.316 µM. The viability, T/C (second compound 0.0316 µM, first compound 0.000999 µM) was 96.2%, the viability, T/C (second compound 0.0316 µM, first compound 0.00316 µM) was 92% and the viability, T/C (second compound 0.0316 µM, first compound 0.00999 µM) was 102%. For the same molecule, the viability, T/C [1] was 99.7%, the viability, T/C (second compound 0.0316 µM, first compound 0.0999 µM) was 103% and the viability, T/C [3] was 94.8%. The viability, T/C (second compound 0.1 µM, first compound 0.000999 µM) was 109%, the viability, T/C (second compound 0.1 µM, first compound 0.00316 µM) was 84.8% and the viability, T/C (second compound 0.1 µM, first compound 0.00999 µM) was 95.8%. For the same molecule, the viability, T/C [7] was 88%, the viability, T/C (second compound 0.1 µM, first compound 0.0999 µM) was 87.3% and the viability, T/C [9] was 79.6%. For the same molecule, the viability, T/C (second compound 0.316 µM, first compound 0.000999 µM) was 93.8%, the viability, T/C (second compound 0.316 µM, first compound 0.00316 µM) was 85.5% and the viability, T/C (second compound 0.316 µM, first compound 0.00999 µM) was 93%. The viability, T/C [13] was 82.6%, the viability, T/C (second compound 0.316 µM, first compound 0.0999 µM) was 88.6% and the viability, T/C [15] was 74.4%. The viability, T/C (second compound 1 µM, first compound 0.000999 µM) was 72.2%, the viability, T/C (second compound 1 µM, first compound 0.00316 µM) was 81.5% and the viability, T/C (second compound 1 µM, first compound 0.00999 µM) was 74.3%. For the same molecule, the viability, T/C [19] was 76%, the viability, T/C (second compound 1 µM, first compound 0.0999 µM) was 81.6% and the viability, T/C [21] was 64.8%. It also gave a viability, T/C (second compound 3.16 µM, first compound 0.000999 µM) of 72.1%, a viability, T/C (second compound 3.16 µM, first compound 0.00316 µM) of 70.8% and a viability, T/C (second compound 3.16 µM, first compound 0.00999 µM) of 76.5%. For the same molecule, the viability, T/C [25] was 71%, the viability, T/C (second compound 3.16 µM, first compound 0.0999 µM) was 73.8% and the viability, T/C [27] was 67.8%. The viability, T/C (second compound 10 µM, first compound 0.000999 µM) was 65%, the viability, T/C (second compound 10 µM, first compound 0.00316 µM) was 65% and the viability, T/C (second compound 10 µM, first compound 0.00999 µM) was 67.4%. The viability, T/C [31] was 63.5%, the viability, T/C (second compound 10 µM, first compound 0.0999 µM) was 70.9% and the viability, T/C [33] was 63.9%.
In the case of O=C(c1cc(Cc2n[nH]c(=O)c3ccccc23)ccc1F)N1CCN(C(=O)C2CC2)CC1 + Cc1cnc(CNC(=O)c2c(=O)c3ccc(N4CCCN(C)CC4)nc3n3c2sc2ccccc23)cn1, the IC50 (second compound 0.0316 µM) is reported as greater than 10 µM, the IC50 (second compound 0.1 µM) is reported as greater than 10 µM and the IC50 (second compound 0.316 µM) is reported as greater than 10 µM. The IC50 (second compound 1 µM) was greater than 10 µM, the IC50 (second compound 3.16 µM) was greater than 10 µM and the IC50 (second compound 10 µM) was greater than 10 µM. It also gave a viability, T/C [1] of 94%, a viability, T/C [2] of 99.1% and a viability, T/C [3] of 97.3%. It also gave a viability, T/C [4] of 94%, a viability, T/C [5] of 96.8% and a viability, T/C [6] of 98.2%. It also gave a viability, T/C [7] of 97%, a viability, T/C [8] of 87.7% and a viability, T/C [9] of 88.4%. It also gave a viability, T/C [10] of 89.5%, a viability, T/C [11] of 101% and a viability, T/C [12] of 91.9%. For the same molecule, the viability, T/C [13] was 90.6%, the viability, T/C [14] was 93.2% and the viability, T/C [15] was 84.1%. It also gave a viability, T/C [16] of 85.5%, a viability, T/C [17] of 85.7% and a viability, T/C [18] of 78.8%. For the same molecule, the viability, T/C [19] was 82.8%, the viability, T/C [20] was 75% and the viability, T/C [21] was 72.5%. The viability, T/C [22] was 73.1%, the viability, T/C [23] was 89.7% and the viability, T/C [24] was 81.7%. The viability, T/C [25] was 75.5%, the viability, T/C [26] was 62.9% and the viability, T/C [27] was 68.8%. For the same molecule, the viability, T/C [28] was 73.8%, the viability, T/C [29] was 74.9% and the viability, T/C [30] was 68.5%. It also gave a viability, T/C [31] of 68.3%, a viability, T/C [32] of 71.4% and a viability, T/C [33] of 69%. The viability, T/C [34] was 68.8%, the viability, T/C [35] was 71.9% and the viability, T/C [36] was 61.8%.
